Laboratory results: patent US6541463B1, “Inhibitors of type 5 and type 3 17β-hydroxysteroid dehydrogenase and methods for their use” (Endorecherche, Inc., priority 1998, dated 2003)
Where two headings read alike, the source gives them in different places.

Tests used:
[1] = test system: Shionogi mouse mammary carcinoma cells; assay: Antiandrogenic activity: inhibition of DHT-induced proliferation of Shionogi cells; assay type: cell-based; settings: for IC50: Mus musculus
Summary of the method: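 Readout was direct Coulter counting of Shionogi mouse mammary tumour cells after 10–12 days' culture with increasing concentrations of agents and DHT, with medium refreshed every 3–4 days. Medium used dextran-coated charcoal-treated serum. Cells were plated at 20 000/well in triplicate, and ED50 came from least-square regression.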

progesterone receptor = assay: Progesterone receptor assay: inhibition of [3H]R5020 binding, uterine cytosol; set-up: species or system rat
Protocol: The manner in which the percentage of inhibition is determined is described in “Other Tests; E-Progesterone Receptor Assay”. Lower numbers are desirable.
[17α-methyl-^3H]-promegestone (R5020) (84 Ci/mmol) and the corresponding unlabeled compound were purchased from New England Nuclear (Lachine, Québec, Canada). All other chemicals were of analytical grade.
Stock solutions of the unlabeled steroids were kept at 4° C. in ethanol. The desired steroid solutions were then prepared by appropriate dilution in buffer B (10 mM Tris-HCl, 1.5 mM EDTA, 10 mM α-monothioglycerol, pH 7.4) containing 30% ethanol.
Female Sprague-Dawley rats weighing 200-300 g were obtained from Charles-River Inc. (St-Constant, Québec, Canada). The rats were gonadectomized under general anesthesia (Isoflurane) and killed by cervical dislocation 24 hours later. The uteri are rapidly removed, dissected free from adhering tissue and frozen on dry-ice. Tissues were kept at −80° C. until use.
All procedures were performed at 4° C. Tissues were pulverized frozen in dry ice with a Thermovac pulverizer. The samples were then homogenized in 10 vol (w/v) of buffer A (25 mM Tris-HCl, 1.5 mM EDTA, 10 mM α-monothioglycerol, 10% glycerol, 10 mM sodium molybdate, pH 7.4) using a Polytron PT-10 homogenizer (Brinkmann Instruments, Canada) at a setting of 5 for two periods of 10 sec, with intervals of 10 sec for cooling. The homogenate was then centrifuged at 105,000×g for 90 min. The supernatant was used immediately for assay.
Progesterone binding was measured using the dextran-coated charcoal adsorption technique. […] Each concentration was done in triplicate. Assay was ended with 300 μl of DCC (1% Norit A and 0.1% Dextran T-70 in Buffer B). After 10 min of incubation, tubes were centrifuged at 2,000×g for 10 min. and decanted in vials with 6 ml of BCS liquid scintillation (New England Nuclear, Dupont). The radioactivity was measured in a Beckman counter at a counting efficiency of 35%.

[2] = read-out: Antiandrogenic Activity Shionogi, DHT [IC50]
[3] = Table 4′, DHT-induced proliferation, E^−6 (10^−6 M)
[4] = Table 4′, DHT-induced proliferation, E^−7

Structure (SMILES)	Antiandrogenic Activity Shionogi, DHT E^−6 [1, 3] [%]	Antiandrogenic Activity Shionogi, DHT E^−7 [1, 4] [%]	% Inhibition Progesterone Receptor E^−6 (progesterone receptor; Table 4′, E^−6) [%]	% Inhibition Progesterone Receptor E^−8 (progesterone receptor; Table 4′, E^−8) [%]	other results
CC(=O)O[C@]1(C(C)=O)CCC2C3C=C(C)C4=CC(=O)CC[C@]4(C)C3CC[C@@]21C (stereo partly drawn) [megestrol acetate, reference compound]					IC50 [1, 2]: 10 nM; % Inhibition Progesterone Receptor (progesterone receptor; * E^−5): 97* %; % Inhibition Progesterone Receptor (progesterone receptor; * E^−7): 36* %; % Inhibition Progesterone Receptor (progesterone receptor; E^−6): 77%; % Inhibition Progesterone Receptor (progesterone receptor; E^−8): 3%
COCCOc1cc2c(cc1C(=O)OC)C1CC[C@@]3(C)C(CC[C@@]34CCC(C)(C)C(=O)O4)C1CC2 (stereo partly drawn) [EM-1402-CS, 2-Carbomethoxy-3-(2″-methoxyethyloxy)-1,3,5(10)-estratrien 17(R)-spiro-2′-(5′,5′-dimethyl-6′-oxo)tetrahydropyran]	−87	−13	4	2	
COc1ccc2c(c1)CCC1C2CCC2(C)C1CCC21CCC(C)(C)C(=O)O1 (stereo not drawn) [EM-1370]	−28	0	0	0	
CCC(=O)O[C@]1(C(C)=O)CCC2C3C=C(C)C4=CC(=O)C[C@H](C)[C@]4(C)C3CC[C@@]21C (stereo partly drawn) [CS-243]					Antiandrogenic Activity Shionogi, DHT ([1]; DHT, E^−6): −129; Antiandrogenic Activity Shionogi, DHT ([1]; DHT, E^−7): −102; IC50 [1, 2]: 11 nM; % Inhibition Progesterone Receptor (progesterone receptor; E^−6): 27%; % Inhibition Progesterone Receptor (progesterone receptor; E^−8): 0%
COc1ccc2c(c1)C(=O)CC1C2CC[C@@]2(C)C1CC[C@@]21CCC(C)(C)C(=O)O1 (stereo partly drawn) [EM-1394]	−23	0	4	2	
COCCOc1cc2c(cc1C(=O)O)C1CCC3(C)C(CCC34CCC(C)(C)C(=O)O4)C1CC2 [EM-1405, 2-Carboxy-3-(2″-methoxyethyloxy)-1,3,5(10)-estratrien-17(R)-spiro-2′-(5′,5′-dimethyl-6′-oxo)tetrahydropyran]	0	0	0	0	
CCC[C@]1(F)CC2C3C=CC4=CC(=O)CC[C@]4(C)C3CC[C@]2(C)C1=O (stereo partly drawn) [EM-1183]					Antiandrogenic Activity Shionogi, DHT E^−6 ([1]; with DHT, E^−6): −51; Antiandrogenic Activity Shionogi, DHT E^−7 ([1]; with DHT, E^−7): 0; % Inhibition Progesterone Receptor E^−6 (progesterone receptor; E^−6): 45%; % Inhibition Progesterone Receptor E^−8 (progesterone receptor; E^−8): 9%
CC12CCC3c4ccc(F)cc4CCC3C1CCC21CCCC(=O)O1 (stereo not drawn) [EM-1170-CS]	−38	15	24	1	
CCS(=O)(=O)Oc1ccc2c(c1)CCC1C2CCC2(C)C1CCC21CCC(C)(C)C(=O)O1 (stereo not drawn) [EM-1364-CS]	−59	−11	0	0	
CSCCOc1ccc2c(c1)CCC1C2CCC2(C)C1CCC21CCCC(=O)O1 [CS-242, 3-Methylthioethyloxy-1,3,5(10)-estratrien-17(R)-spiro-2′-(6′-oxo) Tetrahydropyran]	−66	9	0	0	
CN(C)CCOc1ccc2c(c1)CCC1C2CCC2(C)C1CCC21CCC(C)(C)C(=O)O1 (stereo not drawn) [EM-1389-CS]	−103	−94	0	3	
CC1(C)CCC2(CCC3C4CCc5c(cc(Cl)c(O)c5Cl)C4CCC32C)OC1=O (stereo not drawn) [EM-1391-CS]	−19	0	1	1	
CC(=O)O[C@]1(C(=O)N(C)C)CCC2C3C=C(C)C4=CC(=O)CC[C@]4(C)C3CC[C@@]21C (stereo partly drawn) [EM-1159]					Antiandrogenic Activity Shionogi, DHT ([1]; DHT, E^−6): −71; Antiandrogenic Activity Shionogi, DHT ([1]; DHT, E^−7): 1; % Inhibition Progesterone Receptor (progesterone receptor; E^−6): 4%; % Inhibition Progesterone Receptor (progesterone receptor; E^−8): 2%
CC1(C)CCC2(CCC3C4CCc5ccccc5C4CCC32C)OC1=O (stereo not drawn) [CS-224]	−11	23	5	2	
CN1C(=O)C=C[C@]2(C)C3CC[C@@]4(C)C(CC[C@@]45CCCC(=O)O5)C3CCC12 (stereo partly drawn) [EM-1122-CS]					IC50 ([1]; Table 5, bracketed value, read-out: Antiandrogenic Activity Shlonogl, DHT [IC50 (nM)]): 447 nM; Antiandrogenic Activity Shlonogl, DHT E^−6 ([1]; Table 5, DHT, E^−6): −74%; Antiandrogenic Activity Shlonogl, DHT E^−7 ([1]; Table 5, DHT, E^−7): −14%; % Inhibition Progesterone Receptor E^−6 (progesterone receptor; Table 5 column 14, E^−6): 3%; % Inhibition Progesterone Receptor E^−8 (progesterone receptor; Table 5 column 14, E^−8): 0%
